Source: PubChem BioAssay AID2060626 (Molecular Pharmacology Branch, DTP, NCI, 2025)

System: 168753-222-R-J1-PDC complex spheroid viability
Experiment: Anticancer human tumor 168753-222-R-J1-PDC patient-derived bladder carcinoma cell line growth inhibition [CLK]
Details: for IC50: curve of first compound; for viability, T/C: stronger effect = lower value
Method in brief: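 Multi-cell-type spheroids combined patient-derived tumor cells with HUVEC endothelial cells and human mesenchymal stem cells. Paired agents were dosed in half-log steps down from about clinical Cmax, or from 10 microM where Cmax was unknown.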

[1] = second compound 0.0316 µM, first compound 0.0316 µM
[2] = second compound 0.0316 µM, first compound 0.1 µM
[3] = second compound 0.1 µM, first compound 0.0316 µM
[4] = second compound 0.1 µM, first compound 0.1 µM
[5] = second compound 0.316 µM, first compound 0.0316 µM
[6] = second compound 0.316 µM, first compound 0.1 µM
[7] = second compound 1 µM, first compound 0.0316 µM
[8] = second compound 1 µM, first compound 0.1 µM
[9] = second compound 3.16 µM, first compound 0.0316 µM
[10] = second compound 3.16 µM, first compound 0.1 µM
[11] = second compound 10 µM, first compound 0.0316 µM
[12] = second compound 10 µM, first compound 0.1 µM
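Note: viability measured after seven days of drug exposure.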
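Throughout, for viability, T/C: luminescence signal used as surrogate for viable cell amount; 100% = DMSO vehicle control wells.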

Cn1ncnc1[C@H]1c2n[nH]c(=O)c3cc(F)cc(c23)N[C@@H]1c1ccc(F)cc1 + CNC(=O)c1ccc(Nc2nc(OC3CCCC3)c3c(-c4ccc5nc(C)oc5c4)c[nH]c3n2)c(OC)c1
IC50 (second compound 0.0316 µM): > 100 nM | IC50 (second compound 0.1 µM): > 100 nM | IC50 (second compound 0.316 µM): > 100 nM | IC50 (second compound 1 µM): < 0.316 nM | IC50 (second compound 3.16 µM): < 0.316 nM | IC50 (second compound 10 µM): < 0.316 nM | viability, T/C (second compound 0.0316 µM, first compound 0.000316 µM): 95% | viability, T/C (second compound 0.0316 µM, first compound 0.001 µM): 116% | viability, T/C (second compound 0.0316 µM, first compound 0.00316 µM): 110% | viability, T/C (second compound 0.0316 µM, first compound 0.01 µM): 113% | viability, T/C [1]: 104% | viability, T/C [2]: 108% | viability, T/C (second compound 0.1 µM, first compound 0.000316 µM): 96.8% | viability, T/C (second compound 0.1 µM, first compound 0.001 µM): 93.6% | viability, T/C (second compound 0.1 µM, first compound 0.00316 µM): 91.7% | viability, T/C (second compound 0.1 µM, first compound 0.01 µM): 103% | viability, T/C [3]: 103% | viability, T/C [4]: 92.6% | viability, T/C (second compound 0.316 µM, first compound 0.000316 µM): 66.3% | viability, T/C (second compound 0.316 µM, first compound 0.001 µM): 72% | viability, T/C (second compound 0.316 µM, first compound 0.00316 µM): 77.2% | viability, T/C (second compound 0.316 µM, first compound 0.01 µM): 85.2% | viability, T/C [5]: 82.1% | viability, T/C [6]: 77.2% | viability, T/C (second compound 1 µM, first compound 0.000316 µM): 33.9% | viability, T/C (second compound 1 µM, first compound 0.001 µM): 32% | viability, T/C (second compound 1 µM, first compound 0.00316 µM): 30.6% | viability, T/C (second compound 1 µM, first compound 0.01 µM): 28% | viability, T/C [7]: 31.9% | viability, T/C [8]: 42% | viability, T/C (second compound 3.16 µM, first compound 0.000316 µM): 22.6% | viability, T/C (second compound 3.16 µM, first compound 0.001 µM): 18.6% | viability, T/C (second compound 3.16 µM, first compound 0.00316 µM): 19.6% | viability, T/C (second compound 3.16 µM, first compound 0.01 µM): 18.7% | viability, T/C [9]: 19.8% | viability, T/C [10]: 21.5% | viability, T/C (second compound 10 µM, first compound 0.000316 µM): 15.8% | viability, T/C (second compound 10 µM, first compound 0.001 µM): 17.3% | viability, T/C (second compound 10 µM, first compound 0.00316 µM): 19.3% | viability, T/C (second compound 10 µM, first compound 0.01 µM): 16.8% | viability, T/C [11]: 16.3% | viability, T/C [12]: 20.5%

O=C(c1cc(Cc2n[nH]c(=O)c3ccccc23)ccc1F)N1CCN(C(=O)C2CC2)CC1 + CN1CCN(c2cc(C(=O)Nc3cc4cc(-c5cnn(C)c5)ccc4cn3)ccn2)CC1
IC50 (second compound 0.0316 µM): > 10000 nM | IC50 (second compound 0.1 µM): 424 nM | IC50 (second compound 0.316 µM): < 31.6 nM | IC50 (second compound 1 µM): < 31.6 nM | IC50 (second compound 3.16 µM): < 31.6 nM | IC50 (second compound 10 µM): < 31.6 nM | viability, T/C [1]: 73.3% | viability, T/C [2]: 75.6% | viability, T/C (second compound 0.0316 µM, first compound 0.316 µM): 72.5% | viability, T/C (second compound 0.0316 µM, first compound 1 µM): 88.2% | viability, T/C (second compound 0.0316 µM, first compound 3.16 µM): 73.6% | viability, T/C (second compound 0.0316 µM, first compound 10 µM): 77.8% | viability, T/C [3]: 45.6% | viability, T/C [4]: 67.2% | viability, T/C (second compound 0.1 µM, first compound 0.316 µM): 52.5% | viability, T/C (second compound 0.1 µM, first compound 1 µM): 40.3% | viability, T/C (second compound 0.1 µM, first compound 3.16 µM): 31.5% | viability, T/C (second compound 0.1 µM, first compound 10 µM): 40.1% | viability, T/C [5]: 10.2% | viability, T/C [6]: 8.85% | viability, T/C (second compound 0.316 µM, first compound 0.316 µM): 8.61% | viability, T/C (second compound 0.316 µM, first compound 1 µM): 7.84% | viability, T/C (second compound 0.316 µM, first compound 3.16 µM): 9.11% | viability, T/C (second compound 0.316 µM, first compound 10 µM): 10.2% | viability, T/C [7]: 0.19% | viability, T/C [8]: 0.34% | viability, T/C (second compound 1 µM, first compound 0.316 µM): 0.16% | viability, T/C (second compound 1 µM, first compound 1 µM): 0.63% | viability, T/C (second compound 1 µM, first compound 3.16 µM): 0.66% | viability, T/C (second compound 1 µM, first compound 10 µM): 0.35% | viability, T/C [9]: 0.24% | viability, T/C [10]: 0.12% | viability, T/C (second compound 3.16 µM, first compound 0.316 µM): 0.18% | viability, T/C (second compound 3.16 µM, first compound 1 µM): 0.08% | viability, T/C (second compound 3.16 µM, first compound 3.16 µM): 0.96% | viability, T/C (second compound 3.16 µM, first compound 10 µM): 0.39% | viability, T/C [11]: 0.6% | viability, T/C [12]: 0.32% | viability, T/C (second compound 10 µM, first compound 0.316 µM): 0.35% | viability, T/C (second compound 10 µM, first compound 1 µM): 0.18% | viability, T/C (second compound 10 µM, first compound 3.16 µM): 0.41% | viability, T/C (second compound 10 µM, first compound 10 µM): 1.31%
